We go through 22 compounds from patent publication US20240124434A1, “ATF6 INHIBITORS AND USES THEREOF” (Altos Labs, Inc., priority 2018, published 2024).

Where two headings read alike, the source gives them in different places.

For the experiment, the system named is ATF6. In words: ERSE ATF6-luciferase reporter assay (thapsigargin-induced ER stress). To be noted: thapsigargin-induced ER stress, U2-OS ATF6 luc reporter cells; for inhibition at 1 µM: read-out: Inh. ATF6-Luc @ 1 μM [%]; for IC50: dose-response 30 μM to 1 nM, read-out: IC50 ATF6-Luc reporter. It counts as cell-based, human. (In general: A reporter such as luciferase makes a cellular process visible.)

Setting [1] is: Homo sapiens, U2OS, 8 h, 1 μM test compound, 8 hr.
[2] abbreviates: Homo sapiens, U2OS, 1 μM test compound, 8 hr.

Usually IC50 stands for the concentration that inhibits the measured activity by half. As for `C[C@H](c1ccc(C(F)(F)F)cc1C(F)(F)F)n1cc(NC(=O)c2cc(-c3ncccc3Cl)on2)cn1` [Compound 34, (R)-N-(1-(1-(2,4-bis(trifluoromethyl)phenyl)ethyl)-1H-pyrazol-4-yl)-5-(3-chloropyridin-2-yl)isoxazole-3-carboxamide], the inhibition at 1 µM under setting [1] was under 25%. Further, the IC50 (Homo sapiens, U2OS) is over 10 µM.

Turning to `C[C@H](c1ccc(C(F)(F)F)cc1C(F)(F)F)n1cc(NC(=O)c2cc(-c3cccnc3)on2)cn1` [Compound 36, (R)-N-(1-(1-(2,4-bis(trifluoromethyl)phenyl)ethyl)-1H-pyrazol-4-yl)-5-(pyridin-3-yl)isoxazole-3-carboxamide], the inhibition at 1 µM under setting [1] was under 25%. The IC50 (Homo sapiens, U2OS) is over 10 µM.

Consider `CC(c1ccc(C(F)(F)F)cc1C(F)(F)F)n1cc(NC(=O)c2cc(-c3ncccc3Cl)on2)cn1` (centres unmarked) [Compound 32, N-(1-(1-(2,4-bis(trifluoromethyl)phenyl)ethyl)-1H-pyrazol-4-yl)-5-(3-chloropyridin-2-yl)isoxazole-3-carboxamide], for which the inhibition at 1 µM under setting [1] is under 25%. In addition, under “Homo sapiens, U2OS”, the IC50 is over 10 µM.

For the compound `O=C(Nc1cnn(Cc2ccc(C(F)(F)F)cc2C(F)(F)F)c1)c1nnc(-c2ccccn2)o1` [Compound 151, N-(1-(2,4-bis(trifluoromethyl)benzyl)-1H-pyrazol-4-yl)-5-(pyridin-2-yl)-1,3,4-oxadiazole-2-carboxamide], under setting [1], the inhibition at 1 µM is under 25%. The IC50 (Homo sapiens, U2OS) was over 10 µM.

As for `Cc1nn(Cc2ccc(C(F)(F)F)cc2C(F)(F)F)cc1NC(=O)/C=C/c1ccco1` [Compound 96, (E)—N-(1-(2,4-bis(trifluoromethyl)benzyl)-3-methyl-1H-pyrazol-4-yl)-3-(furan-2-yl)acrylamide], under setting [1], the inhibition at 1 µM is under 25%. Also, the IC50 (Homo sapiens, U2OS) is over 10 µM.

Consider `N#Cc1ccc(Cn2cc(NC(=O)c3cc(-c4ccco4)on3)cn2)cc1` [Compound 25, N-(1-(4-cyanobenzyl)-1H-pyrazol-4-yl)-5-(furan-2-yl)isoxazole-3-carboxamide], for which, under setting [1], the inhibition at 1 µM is under 25%. In addition, the IC50 (Homo sapiens, U2OS) is over 10 µM.

Take `O=C(Nc1cnn(C2Cc3ccccc3C2)c1)c1cc(-c2ccco2)on1` [Compound 18, N-(1-(2,3-dihydro-1H-inden-2-yl)-1H-pyrazol-4-yl)-5-(furan-2-yl) isoxazole-3-carboxamide]: under setting [1], the inhibition at 1 µM was under 25%. Also, the IC50 (Homo sapiens, U2OS) was over 10 µM.

On to Ceapin-A4 [reference compound], for which the half-inhibitory concentration (IC50) was over 10 µM. Further, the “Inh. ATF6-Luc @ 1 μM [%]” value (1 μM test compound, 8 hr) was “+ (+ refers to <25% inhibition at 1 μM)”.

Turning to `COc1ccccc1-c1cc(C(=O)Nc2cnn([C@@H](C)c3ccc(C(F)(F)F)cc3C(F)(F)F)c2)no1` [Compound 89, (S)N-(1-(1-(2,4-bis(trifluoromethyl)phenyl)ethyl)-1H-pyrazol-4-yl)-5-(2-methoxyphenyl)isoxazole-3-carboxamide], the inhibition at 1 µM under setting [1] was under 25%. Under “Homo sapiens, U2OS”, the IC50 was over 10 µM.

With `C[C@@H](c1ccc(C(F)(F)F)cc1C(F)(F)F)n1cc(NC(=O)c2nnc(-c3ccncn3)s2)cn1` [Compound 157, (S)—N-(1-(1-(2,4-bis(trifluoromethyl)phenyl)ethyl)-1H-pyrazol-4-yl)-5-(pyrimidin-4-yl)-1,3,4-thiadiazole-2-carboxamide], under setting [1], the inhibition at 1 µM was under 25%. Also, under “Homo sapiens, U2OS”, the IC50 was over 10 µM.

`Cc1nc(-c2ccccn2)sc1C(=O)Nc1cnn([C@@H](C)c2ccc(C(F)(F)F)cc2C(F)(F)F)c1` [Compound 107, (S)—N-(1-(1-(2,4-bis(trifluoromethyl)phenyl)ethyl)-1H-pyrazol-4-yl)-4-methyl-2-(pyridin-2-yl)thiazole-5-carboxamide]: under setting [1], the inhibition at 1 µM was under 25%. Moreover, the IC50 (Homo sapiens, U2OS) is over 10 µM.

As to `C[C@@H](c1ccc(C(F)(F)F)cc1C(F)(F)F)n1cc(NC(=O)c2cc(-c3cccnc3)on2)cn1` [Compound 37, (S)-N-(1-(1-(2,4-bis(trifluoromethyl)phenyl)ethyl)-1H-pyrazol-4-yl)-5-(pyridin-3-yl)isoxazole-3-carboxamide], the inhibition at 1 µM under setting [1] was under 25%. In addition, for the setting “Homo sapiens, U2OS”, the IC50 was over 10 µM.

On to `C[C@@H](c1ccc(C(F)(F)F)cc1C(F)(F)F)n1cc(NC(=O)c2nnc(-c3ccccn3)o2)cn1` [Compound 134], for which, under setting [1], the inhibition at 1 µM was under 25%. Further, the IC50 (Homo sapiens, U2OS) was over 10 µM.

As to `CC(c1ccc(C(F)(F)F)cc1C(F)(F)F)n1cc(NC(=O)c2cc(-c3ccccn3)ccn2)cn1` (centres unmarked) [Compound 81, N-(1-(1-(2,4-bis(trifluoromethyl)phenyl)ethyl)-1H-pyrazol-4-yl)-[2,4′-bipyridine]-2′-carboxamide], the IC50 (Homo sapiens, U2OS) was over 10 µM. Besides, the inhibition at 1 µM under setting [2] was under 25%.

For the compound `O=C(Nc1cnn(Cc2ccc(C(F)(F)F)cc2C(F)(F)F)c1)c1cc(-c2ncccc2Cl)on1` [Compound 31, N-(1-(2,4-bis(trifluoromethyl)benzyl)-1H-pyrazol-4-yl)-5-(3-chloropyridin-2-yl)isoxazole-3-carboxamide], the inhibition at 1 µM under setting [1] is under 25%. Besides, under “Homo sapiens, U2OS”, the IC50 is over 10 µM.

Take `CC(c1ccc(C(F)(F)F)cc1C(F)(F)F)n1cc(NC(=O)c2ccc(-c3ccccn3)cn2)cn1` (centres unmarked) [Compound 82, N-(1-(1-(2,4-bis(trifluoromethyl)phenyl)ethyl)-1H-pyrazol-4-yl)-[2,3′-bipyridine]-6′-carboxamide]: where the note is “Homo sapiens, U2OS”, the IC50 is over 10 µM. Besides, the inhibition at 1 µM under setting [2] is under 25%.

Take `C[C@H](c1ccc(C(F)(F)F)cc1C(F)(F)F)n1cc(NC(=O)c2nnc(-c3ccccn3)o2)cn1` [Compound 133, (R)—N-(1-(1-(2,4-bis(trifluoromethyl)phenyl)ethyl)-1H-pyrazol-4-yl)-5-(pyridin-2-yl)-1,3,4-oxadiazole-2-carboxamide]: under setting [1], the inhibition at 1 µM is under 25%. In addition, the IC50 (Homo sapiens, U2OS) was over 10 µM.

As for `O=C(Nc1cnn(Cc2c(Cl)cccc2Cl)c1)c1nnc(-c2ccco2)s1` [Compound 148, N-(1-(2,6-dichlorobenzyl)-1H-pyrazol-4-yl)-5-(furan-2-yl)-1,3,4-thiadiazole-2-carboxamide], under setting [1], the inhibition at 1 µM is under 25%. In addition, the IC50 (Homo sapiens, U2OS) is over 10 µM.

As to `C[C@@H](c1ccc(C(F)(F)F)cc1C(F)(F)F)n1cc(NC(=O)c2nnc(-c3ccco3)s2)cn1` [Compound 161, (S)—N-(1-(1-(2,4-bis(trifluoromethyl)phenyl)ethyl)-1H-pyrazol-4-yl)-5-(furan-2-yl)-1,3,4-thiadiazole-2-carboxamide], the inhibition at 1 µM under setting [1] was 25 to 50%. Besides, the IC50 (Homo sapiens, U2OS) was under 1 µM.

`O=C(Nc1cnn(Cc2c(Cl)cccc2Cl)c1)c1nnc(-c2ccccn2)s1` [Compound 145, N-(1-(2,6-dichlorobenzyl)-1H-pyrazol-4-yl)-5-(pyridin-2-yl)-1,3,4-thiadiazole-2-carboxamide]: under setting [1], the inhibition at 1 µM was under 25%. The IC50 (Homo sapiens, U2OS) was over 10 µM.

Turning to `O=C(Nc1cnn(Cc2ccc(C(F)(F)F)cc2C(F)(F)F)c1)c1cc(-c2ccncc2)on1` [Compound 10, N-(1-(2,4-bis(trifluoromethyl)benzyl)-1H-pyrazol-4-yl)-5-(pyridin-4-yl)isoxazole-3-carboxamide], the inhibition at 1 µM under setting [1] is under 25%. Under “Homo sapiens, U2OS”, the IC50 was 1 to 10 µM.

Turning to `C[C@@H](c1ccc(C(F)(F)F)cc1C(F)(F)F)n1cc(NC(=O)/C=C/c2ccco2)cn1` [Compound 86, (S,E)—N-(1-(1-(2,4-bis(trifluoromethyl)phenyl)ethyl)-1H-pyrazol-4-yl)-3-(furan-2-yl)acrylamide], under setting [1], the inhibition at 1 µM is under 25%. Besides, under “Homo sapiens, U2OS”, the IC50 is over 10 µM.
